This assay concerns P388 leukemia ip, CD2F1 mice, survival T/C. Briefly: NCI In Vivo Anticancer Drug Screen. Data for tumor model P388 Leukemia (intraperitoneal) in CD2F1 (CDF1) mice. As to conditions: endpoint: median survival time, higher = longer survival. The method, boiled down:
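Mice carrying the transplanted tumor received test compound or vehicle. Survival was recorded in each group, and the value is the treated-group measurement divided by that of the vehicle-treated control group.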

Where [1] appears, read: dose: 100.0 mg/kg/injection, schedule: Q01DX005 (ip), vehicle: saline with Tween-80.
The mark [2] stands for this setting: dose: 200.0 mg/kg/injection, schedule: Q01DX005 (ip), vehicle: saline with Tween-80.
Setting [3] is: dose: 50.0 mg/kg/injection, schedule: Q01DX005 (ip), vehicle: saline with Tween-80.
[4] abbreviates: dose: 3.12 mg/kg/injection, schedule: Q01DX009 (ip), vehicle: saline with Tween-80.
Where [5] appears, read: dose: 6.25 mg/kg/injection, schedule: Q01DX009 (ip), vehicle: saline with Tween-80.
[6] abbreviates: dose: 12.5 mg/kg/injection, schedule: Q01DX009 (ip), vehicle: saline with Tween-80.
Where [7] appears, read: dose: 50.0 mg/kg/injection, schedule: Q01DX009 (ip), vehicle: saline with Tween-80.
The mark [8] stands for this setting: dose: 100.0 mg/kg/injection, schedule: Q01DX009 (ip), vehicle: saline with Tween-80.
Where [9] appears, read: dose: 200.0 mg/kg/injection, schedule: Q01DX009 (ip), vehicle: saline with Tween-80.
[10] abbreviates: dose: 60.0 mg/kg/injection, schedule: Q01DX005 (ip), vehicle: saline with Tween-80.
The mark [11] stands for this setting: dose: 120.0 mg/kg/injection, schedule: Q01DX005 (ip), vehicle: saline with Tween-80.
Setting [12] is: dose: 240.0 mg/kg/injection, schedule: Q01DX005 (ip), vehicle: saline with Tween-80.
Setting [13] is: dose: 50.0 mg/kg/injection, schedule: Q01DX009 (ip), vehicle: saline.
[14] abbreviates: dose: 100.0 mg/kg/injection, schedule: Q01DX009 (ip), vehicle: saline.
[15] abbreviates: dose: 50.0 mg/kg/injection, schedule: Q01DX001 (ip), vehicle: Klucel (hydroxypropylcellulose) (HPC).
Setting [16] is: dose: 100.0 mg/kg/injection, schedule: Q01DX001 (ip), vehicle: Klucel (hydroxypropylcellulose) (HPC).
The mark [17] stands for this setting: dose: 200.0 mg/kg/injection, schedule: Q01DX001 (ip), vehicle: Klucel (hydroxypropylcellulose) (HPC).
The mark [18] stands for this setting: dose: 50.0 mg/kg/injection, schedule: Q01DX009 (ip), vehicle: Klucel (hydroxypropylcellulose) (HPC).

Each structure is given as a SMILES string. Several values for one entry are separate records, joined by “and”; a condition that tells them apart may be missing. Equal entries are not always repeated. Toxic doses and inconclusive results are not listed.

As for `CCC1(O)CC(OC2CC(N(C)C)C(OC3CC(O)C(O)C(C)O3)C(C)O2)c2c(cc3c(c2O)C(=O)c2c(O)ccc(O)c2C3=O)C1C(=O)OC` (stereo unspecified), the T/C (dose: 3.13 mg/kg/injection, schedule: Q04DX003 (ip), vehicle: Klucel (hydroxypropylcellulose) (HPC)) is 100 % of control; the T/C (dose: 6.25 mg/kg/injection, schedule: Q04DX003 (ip), vehicle: Klucel (hydroxypropylcellulose) (HPC)) is 110 % of control; the T/C (dose: 50.0 mg/kg/injection, schedule: Q04DX003 (ip), vehicle: Klucel (hydroxypropylcellulose) (HPC)) was 120 % of control.

Take `C[C@@H](O)[C@H](NSc1ccccc1[N+](=O)[O-])C(=O)NCCc1nc(-c2nc(C(=O)NCCCBr)cs2)cs1`: the T/C reads like this: (dose: 6.25 mg/kg/injection, schedule: Q01DX005 (ip), vehicle: saline with Tween-80) 93 % of control; (dose: 12.5 mg/kg/injection, schedule: Q01DX005 (ip), vehicle: saline with Tween-80) 95 % of control; (dose: 25.0 mg/kg/injection, schedule: Q01DX005 (ip), vehicle: saline with Tween-80) 90 % of control; under setting [1], 97 % of control; under setting [2], 86 % of control.

In the case of `CCOC(=O)NNS(=O)(=O)CCC(N)C(=O)O` (stereo unspecified), the T/C (dose: 12.5 mg/kg/injection, schedule: Q01DX009 (ip), vehicle: water) is 98 % of control; the T/C (dose: 25.0 mg/kg/injection, schedule: Q01DX009 (ip), vehicle: water) is 88 % of control and 95 % of control; the T/C (dose: 50.0 mg/kg/injection, schedule: Q01DX009 (ip), vehicle: water) is 87 % of control and 90 % of control; the T/C (dose: 100.0 mg/kg/injection, schedule: Q01DX009 (ip), vehicle: water) was 93 % of control; the T/C (dose: 200.0 mg/kg/injection, schedule: Q01DX009 (ip), vehicle: water) is 109 % of control and 86 % of control; the T/C (dose: 400.0 mg/kg/injection, schedule: Q01DX009 (ip), vehicle: water) is 111 % of control.

With `O=C(Nc1ccc(NC(=O)c2ccc(C3=NCCCN3)cc2)cc1)Nc1ccc(C2=NCCCN2)cc1`, the T/C (dose: 10.0 mg/kg/injection, schedule: Q01DX009 (ip), vehicle: saline with Tween-80) is 163 % of control; the T/C (dose: 10.0 mg/kg/injection, schedule: Q01DX009 (ip), vehicle: saline) was 113 % of control; the T/C (dose: 20.0 mg/kg/injection, schedule: Q01DX009 (ip), vehicle: saline) is 159 % of control.

As to `O=C1Nc2c(Cl)cc(Cl)cc2/C1=N/N=C/c1ccccc1O`, the T/C under setting [3] is 91 % of control.

As for `COc1ccc(N=NS(=O)(=O)O)cn1`, the T/C runs as follows: under setting [4], 93 % of control; under setting [5], 101 % of control; under setting [6], 108 % of control; (dose: 25.0 mg/kg/injection, schedule: Q01DX009 (ip), vehicle: saline with Tween-80) 97 % of control; under setting [7], 99 % of control and 97 % of control; under setting [8], 94 % of control. Further, the T/C is, setting by setting: under setting [9], 106 % of control; (dose: 400.0 mg/kg/injection, schedule: Q01DX009 (ip), vehicle: saline with Tween-80) 101 % of control.

As to `COc1ccc(C(O)C2CC(=O)NN=C2C)cc1OC` (stereo unspecified), the T/C under setting [10] is 100 % of control, the T/C under setting [11] is 100 % of control and the T/C under setting [12] was 99 % of control.

For `CC(=O)N(Cc1cnc2nc(N)[nH]c(=O)c2n1)c1ccc(C(=O)NC(CCC(=O)O)C(=O)O)cc1` (stereo unspecified), the T/C (dose: 25.0 mg/kg/injection, schedule: Q01DX009 (ip), vehicle: saline) is 90 % of control; the T/C under setting [13] was 100 % of control; the T/C under setting [14] was 101 % of control and 104 % of control.

With `CC1=C(C)C(=Nc2ccc(N(CCCl)CCCl)cc2)C=CC1=O`, the T/C is, setting by setting: under setting [15], 97 % of control; under setting [16], 100 % of control; under setting [17], 114 % of control.

As to `CC(C)(C)OC(=O)C(N(Cc1ccccc1)Cc1ccccc1)N(Cc1ccccc1)Cc1ccccc1`, the T/C under setting [10] is 88 % of control, the T/C under setting [11] was 88 % of control and the T/C under setting [12] is 86 % of control.

For the compound `CC(=O)Oc1ccc2c3c1CCCN3CCC2`, the T/C was 108 % of control under setting [10], 101 % of control under setting [11] and 102 % of control under setting [12].

In the case of `CCCCC(C)N(CCNc1cc(OC)cc2cccnc12)CC(C)C` (stereo unspecified), the T/C reads like this: (dose: 12.5 mg/kg/injection, schedule: Q01DX005 (ip), vehicle: saline) 106 % of control; (dose: 25.0 mg/kg/injection, schedule: Q01DX005 (ip), vehicle: saline) 101 % of control; (dose: 50.0 mg/kg/injection, schedule: Q01DX005 (ip), vehicle: saline) 106 % of control and 97 % of control.

With `CC1=C(C(=O)CC(=O)C(=O)Nc2ccc(C)cc2)Sc2ccccc2N1`, the T/C is 105 % of control under setting [10], 108 % of control under setting [11] and 106 % of control under setting [12].

Turning to `CCOC(=O)CC/C(=C/c1cccc2cc(OC)ccc12)[N+](=O)[O-]`, the T/C reads like this: under setting [15], 100 % of control; under setting [16], 101 % of control; under setting [17], 104 % of control.

For the compound `O=[N+]([O-])c1ccc([Se]CCO)c([N+](=O)[O-])c1`, the T/C runs as follows: under setting [18], 101 % of control; (dose: 100.0 mg/kg/injection, schedule: Q01DX009 (ip), vehicle: Klucel (hydroxypropylcellulose) (HPC)) 99 % of control.

Regarding `COc1ccc2[nH]c(=O)c(C(C)=O)c(O)c2c1`, the T/C was 103 % of control under setting [3], 105 % of control under setting [1] and 101 % of control under setting [2].

Turning to `O=C1c2ccccc2C(=O)N1N1CC1c1ccccc1` (stereo unspecified), the T/C was 106 % of control under setting [3], 101 % of control under setting [1] and 97 % of control under setting [2].

Regarding `COC(=O)c1ccc2cc1Nc1c(C#N)cnc(=S)n1-2`, the T/C was 114 % of control under setting [7], 112 % of control under setting [8] and 90 % of control under setting [9].

With `CCCCCCCCCCSc1n[nH]c(=S)s1`, the T/C by setting is: under setting [3], 100 % of control; under setting [1], 100 % of control; under setting [2], 105 % of control.

In the case of `CCOC(=O)/N=[N+](\[O-])c1ccccc1`, the T/C (dose: 0.2 mg/kg/injection, schedule: Q01DX009 (ip), vehicle: saline with Tween-80) was 103 % of control; the T/C (dose: 0.39 mg/kg/injection, schedule: Q01DX009 (ip), vehicle: saline with Tween-80) is 103 % of control; the T/C (dose: 0.78 mg/kg/injection, schedule: Q01DX009 (ip), vehicle: saline with Tween-80) is 106 % of control and 95 % of control; the T/C (dose: 1.56 mg/kg/injection, schedule: Q01DX009 (ip), vehicle: saline with Tween-80) is 109 % of control and 95 % of control; the T/C under setting [4] was 103 % of control and 123 % of control; the T/C (dose: 3.12 mg/kg/injection, schedule: Q04DX003 (ip), vehicle: saline with Tween-80) is 112 % of control and 115 % of control. Besides, the T/C reads like this: under setting [5], 107 % of control and 115 % of control; (dose: 6.25 mg/kg/injection, schedule: Q04DX003 (ip), vehicle: saline with Tween-80) 99 % of control and 110 % of control; under setting [6], 115 % of control; (dose: 12.5 mg/kg/injection, schedule: Q04DX003 (ip), vehicle: saline with Tween-80) 112 % of control and 117 % of control and 123 % of control; (dose: 25.0 mg/kg/injection, schedule: Q04DX003 (ip), vehicle: saline with Tween-80) 110 % of control.

In the case of `C=CC(=O)NCCCCC(N)C(=O)O` (stereo unspecified), the T/C is 100 % of control under setting [13]; 100 % of control under setting [14]; 97 % of control (dose: 200.0 mg/kg/injection, schedule: Q01DX009 (ip), vehicle: saline).

For the compound `Cc1csc2nc(-c3cccs3)nn12`, the T/C reads like this: (dose: 30.0 mg/kg/injection, schedule: Q01DX005 (ip), vehicle: Klucel (hydroxypropylcellulose) (HPC)) 103 % of control; (dose: 60.0 mg/kg/injection, schedule: Q01DX005 (ip), vehicle: Klucel (hydroxypropylcellulose) (HPC)) 98 % of control; (dose: 120.0 mg/kg/injection, schedule: Q01DX005 (ip), vehicle: Klucel (hydroxypropylcellulose) (HPC)) 103 % of control; (dose: 240.0 mg/kg/injection, schedule: Q01DX005 (ip), vehicle: Klucel (hydroxypropylcellulose) (HPC)) 105 % of control.

Turning to `O=C1C(O)=C(O)C(=O)c2ccccc21`, the T/C under setting [18] was 90 % of control.

As for `Cn1c(Cc2ccccc2)c(C(=O)/C=C/c2ccccc2)c(=O)n(C)c1=O`, the T/C was 103 % of control under setting [3], 100 % of control under setting [1] and 99 % of control under setting [2].

Source of the values: PubChem BioAssay AID330 (DTP/NCI, 2004).
